Source: patent US20260053932A1, “COMPOUNDS AND METHODS FOR THE TARGETED DEGRADATION OF ANDROGEN RECEPTOR AND ASSOCIATED METHODS OF USE” (Arvinas Operations, Inc., priority 2020, published 2026)

Tested on: androgen receptor (AR) in LNCaP and/or VCaP cells
Experiment: Androgen Receptor ELISA assay (AR degradation)
Type: cell-based
Conditions: degradation of AR ELISA in LNCaP and/or VCaP cells; Table 2C; read-out: DC50 Code*
Outline: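 VCaP cells grown ≥3 days, then treated 5 h with compound in media containing 1 nM R1881 (10× stock). Cells lysed and AR quantified by sandwich ELISA (mouse AR detection Ab, HRP anti-mouse, TMB). DC50 and Dmax derived from AR degradation.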

DC50 | Compound
< 1 nM | Cc1cc(O[C@H]2C(C)(C)[C@H](NC(=O)c3ccc(N4CCC(CN5CCCC[C@H]5COc5ccc6c(c5)C(=O)N(C5CCC(=O)NC5=O)C6=O)CC4)cc3)C2(C)C)cc(C)c1C#N (stereo partly drawn) [compound 162, N-((1r,3S)-3-(4-cyano-3,5-dimethylphenoxy)-2,2,4,4-tetramethylcyclobutyl)-4-(4-(((2S)-2-(((2-(2,6-dioxopiperidin-3-yl)-1,3-dioxoisoindolin-5-yl)oxy)methyl)piperidin-1-yl)methyl)piperidin-1-yl)benzamide]
< 1 nM | CC(C)N(CC1CN(c2ccc(C(=O)N[C@H]3C(C)(C)[C@H](Oc4ccc(C#N)c(Cl)c4)C3(C)C)cc2)C1)[C@H]1C[C@H](Oc2ccc3c(c2)C(=O)N(C2CCC(=O)NC2=O)C3=O)C1 (mixture of isomers) [compound 198, rac-N-((1r,3r)-3-(3-chloro-4-cyanophenoxy)-2,2,4,4-tetramethylcyclobutyl)-4-(3-((((1r,3r)-3-((2-(2,6-dioxopiperidin-3-yl)-1,3-dioxoisoindolin-5-yl)oxy)cyclobutyl) (isopropyl)amino)methyl)azetidin-1-yl)benzamide]
< 1 nM | Cc1cc(O[C@H]2C(C)(C)[C@H](NC(=O)c3cnc(N4CCC(CN(C)[C@H]5C[C@H](Oc6ccc7c(c6)C(=O)N(C6CCC(=O)NC6=O)C7=O)C5)CC4)cn3)C2(C)C)cc(C)c1C#N (mixture of isomers) [compound 224, rac-N-((1r,3r)-3-(4-cyano-3,5-dimethylphenoxy)-2,2,4,4-tetramethylcyclobutyl)-5-(4-((((1r,3r)-3-((2-(2,6-dioxopiperidin-3-yl)-1,3-dioxoisoindolin-5-yl)oxy)cyclobutyl) (methyl)amino)methyl)piperidin-1-yl)pyrazine-2-carboxamide]
< 1 nM | [2H]C([2H])([2H])Oc1cc(O[C@H]2C(C)(C)[C@H](NC(=O)c3cnc(N4CCC(CN(C(C)C)[C@H]5C[C@H](Oc6cc(OC([2H])([2H])[2H])c7c(c6)C(=O)N(C6CCC(=O)NC6=O)C7=O)C5)CC4)cn3)C2(C)C)ccc1C#N (mixture of isomers) [compound 202, rac-N-((1r,3r)-3-(4-cyano-3-(methoxy-d3)phenoxy)-2,2,4,4-tetramethylcyclobutyl)-5-(4-((((1r,3r)-3-((2-(2,6-dioxopiperidin-3-yl)-7-(methoxy-d3)-1,3-dioxoisoindolin-5-yl)oxy)cyclobutyl) (isopropyl)amino)methyl)piperidin-1-yl)pyrazine-2-carboxamide]
< 1 nM | CC(C)Oc1cc(N2CCN(CC3CCN(c4ncc(C(=O)N[C@H]5C(C)(C)[C@H](Oc6ccc(C#N)c(Cl)c6)C5(C)C)cn4)CC3)CC2)cc2c1C(=O)N(C1CCC(=O)NC1=O)C2=O (stereo partly shown) [compound 103, N-((1r,3r)-3-(3-chloro-4-cyanophenoxy)-2,2,4,4-tetramethylcyclobutyl)-2-(4-((4-(2-(2,6-dioxopiperidin-3-yl)-7-isopropoxy-1,3-dioxoisoindolin-5-yl)piperazin-1-yl)methyl)piperidin-1-yl)pyrimidine-5-carboxamide]
< 1 nM | Cc1cc(O[C@H]2C(C)(C)[C@H](NC(=O)c3ccc(N4CCC(OCCN(C)[C@H]5C[C@H](Oc6ccc7c(c6)C(=O)N(C6CCC(=O)NC6=O)C7=O)C5)CC4)cc3)C2(C)C)cc(C)c1C#N (mixture of isomers) [compound 150, rac-N-((1r,3r)-3-(4-cyano-3,5-dimethylphenoxy)-2,2,4,4-tetramethylcyclobutyl)-4-(4-(2-(((1r,3r)-3-((2-(2,6-dioxopiperidin-3-yl)-1,3-dioxoisoindolin-5-yl)oxy)cyclobutyl) (methyl)amino)ethoxy)piperidin-1-yl)benzamide]

Same assay, conditions: degradation of AR ELISA in LNCaP and/or VCaP cells; read-out: DC50 Code*

DC50 | Compound
1 to 10 nM | CC1(C)[C@H](NC(=O)c2ccc(N3CCC(CN4CCN(c5ccc6c(c5)C(=O)N(C5(C#N)CCC(=O)NC5=O)C6)CC4)CC3)cc2)C(C)(C)[C@H]1Oc1ccc(C#N)c(Cl)c1 (mixture of isomers) [compound 241, rac-N-((1r,3r)-3-(3-chloro-4-cyanophenoxy)-2,2,4,4-tetramethylcyclobutyl)-4-(4-((4-(2-(3-cyano-2,6-dioxopiperidin-3-yl)-3-oxoisoindolin-5-yl)piperazin-1-yl)methyl)piperidin-1-yl)benzamide]
